This is an account of results in ChEMBL document CHEMBL1155866, “Effects of N-pyrrole substitution on the anti-biofilm activities of oroidin derivatives against Acinetobacter baumannii” (Bioorg Med Chem Lett, 2008).

In test [1] the test system is Acinetobacter baumannii. The test is described as follows: Inhibition of […] biofilm formation after 24 hrs by crystal violet reporter assay. The test is classed as functional, organism-based. For orientation: In a reporter assay the amount or activity of a reporter protein is the signal.
The subject of test [2] is Acinetobacter baumannii. The test is described as follows: Inhibition of […] biofilm dispersion after 24 hrs by crystal violet reporter assay. The test is classed as functional, organism-based.
For test [3], the system named is Acinetobacter baumannii. The test is described as follows: Inhibition of […] biofilm formation at 500 uM after 24 hrs by crystal violet reporter assay. In kind it is functional.

For the compound `Nc1nc(CCCNC(=O)c2cc(Br)c(Br)n2Cc2ccccc2)c[nH]1`, half-maximal inhibition with Acinetobacter baumannii [1] (IC50) was put at 35.4 µM.

As to `Nc1nc(CCCNC(=O)c2cc(Br)c(Br)n2-c2ccc(Br)cc2)c[nH]1`, the IC50 with Acinetobacter baumannii [1] came out at 26.8 µM. Moreover, in the test on Acinetobacter baumannii [2], the EC50 amounted to 41.3 µM. The compound `Nc1nc(CCCNC(=O)c2cc(Br)c(Br)n2-c2ccccc2)c[nH]1` displayed an IC50 in the test with Acinetobacter baumannii [1] of 97.7 µM. As for `CCn1c(C(=O)NCCCc2c[nH]c(N)n2)cc(Br)c1Br`, in the test with Acinetobacter baumannii [3], the inhibition at 500 µM stood at 10.3%. As for `Nc1nc(CCCNC(=O)c2cc(Br)c(Br)n2C2CCCC2)c[nH]1`, the IC50 in the test on Acinetobacter baumannii [1] was determined as 40.5 µM. That is a double-digit micromolar value.

In turn, `COc1ccc(Cn2c(C(=O)NCCCc3c[nH]c(N)n3)cc(Br)c2Br)cc1` registered an IC50 with Acinetobacter baumannii [1] of 42.8 µM.

Turning to `Nc1nc(CCCNC(=O)c2cc(Br)c(Br)n2CCc2ccccc2)c[nH]1`, the IC50 in the test with Acinetobacter baumannii [1] is 40.7 µM. `Cn1c(C(=O)NCCCc2c[nH]c(N)n2)nc(Br)c1Br`: in the test on Acinetobacter baumannii [3], the inhibition at 500 µM was 50.7%. With `Cn1c(C(=O)NCCCc2c[nH]c(N)n2)cc(Br)c1Br` [DIHYDROSVENTRIN], in the test with Acinetobacter baumannii [1], the IC50 came to 110 µM. Also, in the test on Acinetobacter baumannii [3], the inhibition at 500 µM is greater than 99%.

Usually IC50 stands for the point on the concentration scale where inhibition reaches its midpoint. Low values mean greater potency, high ones weaker potency. What is called EC50 is the concentration that produces a half-maximal response. Lower therefore signals greater potency. As a reminder, the inhibition is how much of the control response was suppressed. Lower therefore signals a response near the control.
